Measured values: PubChem BioAssay (NCI)
Values joined by “and” are separate entries in the source; they are usually repeats but may differ in a detail not shown here. Equal entries are not always repeated.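 96-well plates; 48 h exposure; 5 concentrations. Endpoints by linear interpolation between flanking doses. Not reached: highest tested concentration assigned. GI50 marks 50% less growth. TGI marks complete inhibition of growth.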 Where a SMILES comes first, the peptide text is derived from it. [ ]: non-standard residue; d: D form. The star is where a group is joined. Bn2Val = CC(C)[C@@H](C(=O)*)N(Cc1ccccc1)Cc1ccccc1; NH(4-Cl-benzyl) = Clc1ccc(CN*)cc1; NMeV = CN[C@H](C(=O)O)C(C)C; dNMeA = CN[C@H](C)C(=O)O

What was measured:
Assay in all cases: growth of human tumour cells (NCI), 48 h
LOX IMVI melanoma = tested on: LOX IMVI melanoma
CAKI-1 renal = tested on: CAKI-1 renal
SF-539 CNS = tested on: SF-539 CNS
HOP-62 NSCLC = tested on: HOP-62 NSCLC
K-562 leukemia = tested on: K-562 leukemia
SNB-75 CNS = tested on: SNB-75 CNS
IGROV1 ovarian = tested on: IGROV1 ovarian
MDA-MB-435 = tested on: MDA-MB-435
SK-MEL-2 melanoma = tested on: SK-MEL-2 melanoma
DMS 114 small cell lung = tested on: DMS 114 small cell lung
DMS 273 small cell lung = tested on: DMS 273 small cell lung

SMILES	TGI (LOX IMVI melanoma)	TGI (CAKI-1 renal)	TGI (SF-539 CNS)	TGI (HOP-62 NSCLC)	TGI (K-562 leukemia) [µM]	TGI (SNB-75 CNS)	TGI (IGROV1 ovarian)	TGI (MDA-MB-435) [µM]	TGI (SK-MEL-2 melanoma)	TGI (DMS 114 small cell lung) [µM]	TGI (DMS 273 small cell lung) [µM]	GI50 (CAKI-1 renal) [µM]	GI50 (LOX IMVI melanoma) [µM]	GI50 (SF-539 CNS) [µM]	GI50 (HOP-62 NSCLC) [µM]	GI50 (K-562 leukemia) [µM]	GI50 (SNB-75 CNS) [µM]	GI50 (SK-MEL-2 melanoma) [µM]	GI50 (IGROV1 ovarian) [µM]	GI50 (MDA-MB-435) [µM]
CN(C)CCCNc1ccc2nnn3c4ccc(O)cc4c(=O)c1c23	4.12 µM	13.1 µM	19.6 µM	17.6 µM	> 57.2	20.2 µM	17.9 µM	20.9	26.3 µM	23.1	–	–	–	–	–	–	–	–	–	–
O=C(O)c1ccccc1N=Cc1ccc(N(CCCl)CCCl)cc1	> 100 µM	34.5 µM	> 100 µM	–	> 100	> 100 µM	> 100 µM	–	> 100 µM	–	> 100	–	–	–	–	–	–	–	–	–
COc1cccc(C=O)c1[O-].[O]=[U](=[O])([OH2+])[OH2+]	> 100 µM	> 100 µM	64.9 µM	> 100 µM	> 100	81.3 µM	> 100 µM	–	> 100 µM	> 100	> 100	> 100	–	–	–	–	–	–	–	–
CN=C(/N=c1\ssc(=NC)n1C)N(C)C	> 100 µM	> 100 µM	> 100 µM	–	> 100	> 100 µM	> 100 µM	–	–	> 100	> 100	–	–	–	–	–	–	–	–	–
O=C(Nc1ccccc1C(=O)NCc1ccccc1)/C(=C/c1ccccc1)NC(=O)c1ccccc1	> 100 µM	> 100 µM	> 100 µM	> 100 µM	> 100	> 100 µM	> 100 µM	> 100	> 100 µM	–	–	–	–	–	–	–	–	–	–	–
O=C(O)COc1cc(-c2ccccc2)nc2cc(F)ccc12	> 100 µM	> 100 µM	> 100 µM	> 100 µM	> 100	> 100 µM	> 100 µM	> 100	> 100 µM	–	–	–	–	–	–	–	–	–	–	–
CC(C)(C)OC(=O)NCC(CNC(=O)OC(C)(C)C)c1nc(C(N)=O)cs1	> 100 µM	> 100 µM	> 100 µM	> 100 µM	> 100	> 100 µM	> 100 µM	> 100	> 100 µM	–	–	–	–	–	–	–	–	–	–	–
COc1cccc(N[C@@H]2c3cc4c(cc3C(c3cc(OC)c(O)c(OC)c3)[C@H]3C(=O)OCC32)OCO4)c1 (some centres undefined)	10.3 µM	2.12 µM	2.52 µM	0.671 µM	14.1	–	33.8 µM	–	11.2 µM	4.77	2.44	–	–	–	–	–	–	–	–	–
Cc1nn(-c2ccccc2)c(C)c1/C=N/N=C1\S/C(=C\c2ccc(Cl)cc2)C(=O)N1c1ccccc1	> 100 µM	> 100 µM	> 100 µM	> 100 µM	> 100	71.8 µM	> 100 µM	> 100	> 100 µM	–	–	–	–	–	–	–	–	–	–	–
CC(C)C(C/C=C1\CC(CO)(COC(=O)C2CCCCC2)OC1=O)C(C)C (centres undefined)	32.3 µM	43.8 µM	36.3 µM	27.5 µM	55.6	26.5 µM	39.5 µM	> 100	> 100 µM	–	–	–	–	–	–	–	–	–	–	–
NCc1cccc(O)c1O	> 100 µM	> 100 µM	–	> 100 µM	> 100	> 100 µM	–	–	> 100 µM	> 100	> 100	–	–	–	–	–	–	–	–	–
O=C1c2c(O)cccc2-c2nn(CCNCCO)c3ccc(NCCNCCO)c1c23	1.68 µM	1.81 µM	1.1 µM	0.63 µM	–	1.14 µM	5.8 µM	1.87	1.38 µM	0.178	2.54	–	–	–	–	–	–	–	–	–
COc1ccc(C(SC2C(O)C(CO)OC2n2ccc(=O)[nH]c2=O)(c2ccccc2)c2ccc(OC)cc2)cc1 (centres undefined)	31.5 µM	> 100 µM	39.2 µM	40.8 µM	> 100	48.9 µM	40.9 µM	22.8	31.4 µM	–	–	–	–	–	–	–	–	–	–	–
C/C(=N\Nc1nc2cc(C(F)(F)F)ccc2s1)c1ccccn1	2.48 µM	5.14 µM	14.3 µM	13.7 µM	> 100	11.3 µM	3.99 µM	7.62	4.69 µM	–	–	–	–	–	–	–	–	–	–	–
CC(=O)NC1C(OCc2ccccc2)OC(CO)C(O)C1OC(C)C(=O)NC(C(=O)NC(CCC(=O)NCCCCNc1c2ccccc2nc2cccc([N+](=O)[O-])c12)C(N)=O)C(C)C (centres undefined)	4.68 µM	> 100 µM	11.2 µM	11.7 µM	> 100	10.5 µM	10.4 µM	2.84	12.5 µM	–	–	–	–	–	–	–	–	–	–	–
CC(Oc1ccccc1Cl)C(=O)NN1C(=O)CSC1c1ccccc1 (centres undefined)	> 100 µM	> 100 µM	> 100 µM	> 100 µM	> 100	> 100 µM	> 100 µM	> 100	> 100 µM	–	–	–	–	–	–	–	–	–	–	–
CC(C)[C@H](NC(=O)[C@H](C(C)C)N(Cc1ccccc1)Cc1ccccc1)C(=O)N(C)[C@H](C(=O)N1CCC[C@H]1C(=O)N(C)[C@H](C)C(=O)NCc1ccc(Cl)cc1)C(C)C (Bn2Val-V[NMeV]P[dNMeA]-{NH(4-Cl-benzyl)})	3.63 µM	> 100 µM	62.3 µM	29.5 µM	> 100	29.6 µM	8.3 µM	79.8	3.62 µM	–	–	–	–	–	–	–	–	–	–	–
Cc1ccccc1N=C(N)Nc1ccccc1C	> 100 µM	> 100 µM	> 100 µM	> 100 µM	> 100	> 100 µM	> 100 µM	> 100	> 100 µM	–	–	–	–	–	–	–	–	–	–	–
C=C=C(CC(CC(=C)Br)(C(=O)OC)C(=O)OC)S(=O)(=O)c1ccccc1	1.7 µM	2.71 µM	3.33 µM	12.4 µM	> 100	20.5 µM	5.52 µM	4.17	8.22 µM	–	–	–	–	–	–	–	–	–	–	–
CC1=C2C(=CO[C@H](C)[C@H]2C)C(=O)C(C(=O)O)=C1O	44.7 µM and 53.8 µM	54.2 µM and 77.8 µM	30.3 µM and 59.2 µM	44.2 µM and 79.3 µM	54.8	111 µM and > 62.1 µM	69.6 µM and 49.4 µM	76.1	48.1 µM and 37.5 µM	30	123	16.6	20.1	23.9	29	36.9	21.2	18.7	–	–
CC1(C)CC2(CC(C)(C)N1O)NC(=O)OC2=O	> 100 µM	> 100 µM	> 100 µM	> 100 µM	> 100	> 100 µM	> 100 µM	–	> 100 µM	> 100	> 100	–	–	–	–	–	–	–	–	–
CN1CC2=C(NC(=S)NC2c2ccccc2)/C(=C/c2ccccc2)C1 (centres undefined)	> 100 µM	> 100 µM	> 100 µM	> 100 µM	> 100	> 100 µM	> 100 µM	> 100	> 100 µM	–	–	–	–	–	–	–	–	–	–	–
COc1ccc2[nH]c(O)c(/C=c3/cc4c(c(-c5ccc(F)c(OC)c5)n3)=Nc3ccccc3-4)c2c1	3.29 µM	36.9 µM	3.37 µM	4.88 µM	10.2	3.56 µM	17.6 µM	6.01	5.41 µM	–	–	18.2	1.72	1.86	2.42	3.16	1.56	2.23	4.41	2.39
NN=C(CC(O)(C(F)(F)Cl)C(F)(F)Cl)CC(O)(C(F)(F)Cl)C(F)(F)Cl	> 10 µM	> 10 µM	> 10 µM	> 10 µM	> 10	> 10 µM	> 10 µM	> 10	> 10 µM	–	–	–	–	–	–	–	–	–	–	–
CCc1cc2c(c3c1CCCC3=O)CC1(Cc3ccc(C(=O)OC)cc3C1)C2 (centres undefined)	> 100 µM	> 100 µM	> 100 µM	> 100 µM	> 100	> 100 µM	> 100 µM	> 100	> 100 µM	–	–	–	–	–	–	–	–	–	–	–
CC(=O)Nc1ccc(OC/C(N)=N/NC(=O)c2ccncc2)cc1	> 100 µM	> 100 µM	> 100 µM	> 100 µM	> 100	> 100 µM	> 100 µM	> 100	> 100 µM	–	–	–	–	–	–	–	–	–	–	–
